# From US9526720B2, “Modulators of hepatic lipoprotein metabolism” (The Broad Institute, Inc., priority 2012, dated 2016)
# Like-named read-outs stand apart in the source and are kept apart here.
# Legend:
# [1] = test system: TRIB1; assay: qPCR TRIB1 expression in HepG2 cells; format: cell-based; details: Homo sapiens
# [2] = test system: LDLR; assay: qPCR LDLR expression in HepG2 cells; format: cell-based, human; details: Homo sapiens, HepG2, 6 h; read-out: qPCR 6Hr (EC50 uM) LDLR up-regulation
# Procedure: (§1) In the primary screen, HepG2 cells were plated in 384-well plates at 2000 cells per well and incubated for 20 hours with each compound in duplicate at 10 microM concentration. Then RNA was isolated, reverse-transcribed to cDNA, and stored at −80° C. Expression levels of TRIB1 and other target genes, such as SORT1 and PCSK9, were determined by quantitative PCR. Relative gene expression level was normalized to expression of the housekeeping gene, GAPDH. A “hit” was defined as those compounds that caused a greater than 2-fold increase in relative target gene expression when normalized to GAPDH expression, compared to DMSO-treated control. Using these criteria, 130 hits were identified for TRIB1 (0.8% hit rate).
# (§2) Further analysis of the expression levels of various proteins in the cholesterol and triglyceride biosynthetic pathways in response to TRIB1 inducer treatment was performed. In particular, transcript levels of additional lipoprotein metabolism pathway proteins SCAP, SREBF1, SREBF2, HMGCR, HMGCS, SCD1, FASN and MTTP were assessed by qPCR, along with TRIB1, LDLR, and PCSK9. The gene expression profile for the same subset of genes was also assessed after treatment with the statin atorvastatin (Lipitor), commonly used in therapy for hypercholesterolemia and other cardiovascular diseases.
# (§3) The kinetics of the modulation of TRIB1, LDLR, PCSK9 and MTTP gene expression after treatment by select TRIB1 inducer compounds was monitored by qPCR analysis (FIG. 4). RNA was extracted from cells at various timepoints over 28 hours of treatment (0, 2, 4, 6, 8, 24, 28 hours). Specifically, compounds 12a and 14a induced transcriptional responses over time similar to those produced by berberine, a plant alkaloid used in Chinese medicine. […] Both compound 12a and compound 14a induce TRIB1 and LDLR and repress PCSK9 and MTTP expression with similar kinetics and similar fold change as berberine Importantly, both compounds induce these gene expression changes at much lower concentrations than berberine. […] This increased potency indicates the potential therapeutic efficacy of such compounds for treatment of cardiovascular diseases, particularly hypercholesterolemia and related conditions.
# [3] = test system: LDLR; assay: ELISA of LDLR protein in HepG2 cells; format: cell-based, human; details: Homo sapiens, HepG2, 24 h; read-out: ELISA 24 Hr (EC50 uM) LDLR increase
# Procedure: (§4) Additional secondary assays were performed in HepG2 cells to further characterize the cellular response to treatment with select confirmed TRIB1 inducer hits. The results of the ELISA, CTG, and qPCR secondary assays are summarized in Table B. For all secondary assays, the experiments were performed using powders of freshly purified compounds.
# (§5) To further characterize the relationship of TRIB1 induction and PCSK9 reduction, ELISAs were performed to measure the levels of secreted ApoB, PCSK9, and LDLR. […] As predicted treatment with TRIB1 inducer hits caused a decrease in ApoB levels detected by ELISA. In parallel effort, 3200 BIOA and NATP compounds were screened for PCSK9 expression inhibitors. Hits were defined as inducing greater than 3-fold downregulation of PCSK9, and 3.8% of the screened compounds were confirmed as hits. […] In further experiments, a strong correlation was confirmed between TRIB1 induction and PCSK9 repression in DOS Collection hits. ELISA analysis confirmed that treatment with TRIB1 inducers reduced the PCSK9 protein levels. LDLR protein levels were also analyzed by ELISA to determine whether compounds that modulate both TRIB1 and PCSK9 had any effect on LDLR protein levels.
# [4] = test system: PCSK9; assay: qPCR PCSK9 expression in HepG2 cells; format: cell-based, human; details: Homo sapiens, HepG2, 24 h; read-out: qPCR 24 Hr (EC50 uM) PCSK9 down-regulation
# Procedure: as §1, §2, §3
# [5] = test system: PCSK9; assay: ELISA of secreted PCSK9 protein in HepG2 cells; format: cell-based, human; details: Homo sapiens, HepG2, 24 h; read-out: ELISA 24 Hr (EC50 uM) PCSK9 decrease
# Procedure: as §4, §5
# [6] = test system: ApoB; assay: ELISA of secreted ApoB in HepG2 cells; format: cell-based, human; set-up: key to ELISA 24 Hr (EC50 uM) ApoB decrease: A: EC50 between 0.0000001 μM≦0.5 μM; B: EC50 between 0.51 μM≦1.0 μM; EC50 between 1.1 μM≦2.0 μM; D: EC50 between 2.1 μM≦5.0 μM; EC50 between 5.1 μM≦10 μM; F: EC50>10 μM; NC: No change
# Procedure: as §4, §5
# [7] = HepG2, induction of TRIB1 and LDLR transcript levels, read-out: half maximal effective concentration (EC50)
# [8] = HepG2, 6 h, read-out: qPCR 6Hr (EC50 uM) TRIB1 up-regulation
"EC50 [1, 7]",EC50 [2],EC50 [3],EC50 [4],EC50 [5],"EC50 [1, 8]","EC50 ([6]; Homo sapiens, HepG2, 24 h, read-out: ELISA 24 Hr (EC50 uM) ApoB decrease)",ELISA 24 Hr (EC50 uM) ApoB decrease [6],SMILES
< 1 µM,,,,,,,,CN1C(=O)c2cc(NC(=O)Nc3ccccc3F)ccc2OC[C@@H]2O[C@H](CC(=O)NCc3ccc(-c4ccccc4)cc3)CC[C@@H]21 [Compound 15a]
,5.1 to 10 µM,5.1 to 10 µM,0.51 to 1 µM,1.1 to 2 µM,2.1 to 5 µM,> 10 µM,,N#C[C@@H]1[C@H](c2ccc(-c3ccccc3F)cc2)[C@H](CO)N1C(=O)C1CCC1 [Compound 21a]
,2.1 to 5 µM,1.1 to 2 µM,1.1 to 2 µM,2.1 to 5 µM,2.1 to 5 µM,,NC,CN(C)C(=O)c1ccc(-c2ccc([C@H]3[C@@H](C#N)N(C(=O)C4CCC4)[C@@H]3CO)cc2)cc1 [Compound 22a]
,2.1 to 5 µM,0.51 to 1 µM,1.1 to 2 µM,1.1 to 2 µM,2.1 to 5 µM,,NC,CCCNC(=O)N1[C@H](C#N)[C@H](c2ccc(-c3cccnc3)cc2)[C@@H]1CO [Compound 23a]
< 1 µM,0.51 to 1 µM,1.1 to 2 µM,,,0.51 to 1 µM,,,CN(C)C(=O)c1ccc(-c2ccc([C@H]3[C@@H](C#N)N(C(=O)C4CCCCC4)[C@H]3CO)cc2)cc1 [Compound 17a]
< 1 µM,,,,,,,,COCC(=O)Nc1ccc2c(c1)C(=O)N(C)[C@H]1CC[C@@H](CC(=O)NC3Cc4ccccc4C3)O[C@H]1CO2 [Compound 16a]
,2.1 to 5 µM,5.1 to 10 µM,,2.1 to 5 µM,5.1 to 10 µM,,NC,N#C[C@@H]1[C@H](c2ccc(-c3cccc(F)c3)cc2)[C@@H](CO)N1C(=O)c1cccnc1 [Compound 24a]
